In patent publication US5484940A, “Substituted 3-indolyl-5-pyrazolone compounds” (priority 1994, dated 1996) one finds inhibition data, which are given here for one molecule.

In the assay the target is T1, 5-lipoxygenase (Rattus norvegicus, UniProt P12527).
T1 construct: crude 5-lipoxygenase enzyme from rat basophilic leukemia cells (RBL-1); endogenous in cells; host or cells: RBL-1 (rat basophilic leukemia cells), crude enzyme
T1 sequence (P12527 1-673): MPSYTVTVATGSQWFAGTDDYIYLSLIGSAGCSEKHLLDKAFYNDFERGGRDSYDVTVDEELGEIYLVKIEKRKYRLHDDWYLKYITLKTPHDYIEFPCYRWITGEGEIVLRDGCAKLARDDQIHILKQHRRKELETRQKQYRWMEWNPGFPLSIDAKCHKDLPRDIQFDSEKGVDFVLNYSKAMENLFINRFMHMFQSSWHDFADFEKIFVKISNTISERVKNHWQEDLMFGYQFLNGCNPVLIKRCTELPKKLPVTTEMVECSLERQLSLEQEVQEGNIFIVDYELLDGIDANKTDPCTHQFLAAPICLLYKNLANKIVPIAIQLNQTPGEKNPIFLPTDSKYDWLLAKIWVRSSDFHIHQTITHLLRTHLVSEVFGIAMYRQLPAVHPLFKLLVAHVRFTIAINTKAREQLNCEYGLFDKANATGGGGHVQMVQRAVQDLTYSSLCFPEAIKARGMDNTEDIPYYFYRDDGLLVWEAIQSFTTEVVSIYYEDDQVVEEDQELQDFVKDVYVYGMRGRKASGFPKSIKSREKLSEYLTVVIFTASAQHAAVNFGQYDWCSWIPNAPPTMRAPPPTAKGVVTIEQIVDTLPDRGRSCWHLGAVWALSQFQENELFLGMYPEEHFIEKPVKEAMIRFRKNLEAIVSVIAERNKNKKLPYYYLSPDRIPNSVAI
Kind of assay: 5-Lipoxygenase inhibition (5-HETE radioimmunoassay). The class given is biochemical. Particulars: 6 μM compound; crude enzyme from RBL-1 cells; read-out: Percent Inhibition (5-lipoxygenase). How it is done:
5-Lipoxygenase catalyzes the oxidative metabolism of arachidonic acid to 5-hydroperoxyeicosatetraenoid acid ([…]), the initial reaction leading to the formation of the leukotrienes^18. Accordingly, compounds inhibiting 5-lipoxygenase activity are art recognized to have anti-inflammatory properties.
The ability of test compounds to inhibit 5-lipoxygenase activity was determined in assays^19 using crude 5-lipoxygenase enzyme from rat basophilic leukemia cells (RBL-1). Test compounds are pre-incubated with the enzyme for 5 minutes at room temperature and the reaction is initiated by addition of substrate (arachidonic acid). Following an 8 minute incubation at room temperature, the reaction is terminated by addition of citric acid, and levels of 5-HETE determined by 5-HETE radioimmunoassay.

With `COc1ccc2c(c1)c(CC1=NN(c3cccc(C(F)(F)F)c3)C(=O)C1)c(C)n2C(=O)c1ccc(Cl)cc1` [Example 25, 3-[1-(4-chlorobenzoyl)-5-methoxy-2-methyl-3-indolylmethyl]-1-(3-trifluoromethylphenyl)-5-pyrazolone], the inhibition (in general, how much of the control response was suppressed) at 6 µM was determined as 60%.
